Experimental data published in patent publication US4119667A, “Haloaniline derivatives as plant growth modifiers” (Rohm and Haas Company, priority 1974, dated 1978).
Where two headings read alike, the source gives them in different places.

Tests used:
soybean (Var. Clark) [1] = experiment: greenhouse growth regulator test on soybean (Table I); format: in vivo; details: two weeks after application; for Injury (0-10): 0-10 scale, 0 = no effect, 10 = complete kill; for pest or weed control / pest or weed control at 2241.7 g/ha: Glycine max, foliar, 336 h, relative to control, read-out: Height (% inhib.)
Source text: Limited greenhouse experiments shown that there is promotion of lateral bud growth when compounds are applied at higher concentrations and earlier timings and an increase in soybean pod numbers at lower rates applied just prior to or at the flowering stage. […] Three parameters are reported in Table I to indicate the general spectrum of activity for each evaluated compound including the propensity for releasing lateral bud growth in soybeans. These are: (a) plant height measured as percent inhibition relative to the control; (b) the number of lateral buds per plant; and (c) phytotoxic injury on a scale of 0 to 10 (10 being maximum injury). Sampling compounds were evaluated in the greenhouse in a special growth regulator test. Four to five soybean seeds (Var. Clark) were planted in 4-inch pots with a humus-soil mixture. Two weeks after planting, two uniform plants were selected from each pot for treatment. The candidate compounds were dissolved in acetone-water (1:1), and applied as a foliar spray in a carrier volume of 50 gallons per acre, using a moving belt sprayer at a rate of 1/4, 1/2 and 2 lbs/acre. Six plants were used for each treatment. Two weeks after application, the number of laterals per plant, plant injury (0-10 scale; 0 = no effect, 10 = complete kill,) and the height of each plant were recorded. Untreated plants were used as controls.

soybean (Var. Clark) [2] = experiment: effect of haloaniline derivatives on soybean yields at different rates and stages of growth (Table VIII); format: in vivo
Method: a further experiment was conducted to determine the effect of selected haloaniline derivatives on soybean yields at different rates of application, and at differing stages of growth.
Soybeans (Var. Clark) were planted at the rate of 4 seeds per 6 inch pot in a medium of 1 part humus and 2 parts soil. Two weeks after planting two uniform plants were selected from each pot for treatment. The soybeans were treated weekly with a high analysis liquid fertilizer. The candidate compounds were dissolved in acetone-water (1:1) and applied at three timings as a foliar spray in a carrier volume of 50 gallons per acre using a moving belt sprayer at rates ranging from 0.1 to two lbs. per acre. Six plants were used for each treatment. The beans were harvested eight weeks after the third treatment and the seeds and pods per plant were counted.

Row | SMILES | No. Laterals per plant (soybean (Var. Clark) [1]; 1/2 lbs/acre foliar spray) | Injury (0-10) (soybean (Var. Clark) [1]; 1/2 lbs/acre) | No. Laterals per plant (soybean (Var. Clark) [1]; 1/4 lbs/acre foliar spray) | Injury (0-10) (soybean (Var. Clark) [1]; 1/4 lbs/acre) | No. Laterals per plant (soybean (Var. Clark) [1]; 2 lbs/acre foliar spray) | Injury (0-10) (soybean (Var. Clark) [1]; 2 lbs/acre) | pest or weed control (soybean (Var. Clark) [1]; 1/2 lbs/acre foliar spray) [%] | pest or weed control (soybean (Var. Clark) [1]; 1/4 lbs/acre foliar spray) [%] | pest or weed control at 2241.7 g/ha (soybean (Var. Clark) [1]; 2 lbs/acre foliar spray) [%] | Pods per Plant (soybean (Var. Clark) [2]; 2nd treatment, 0.10 lbs./A) | Seeds per Plant (soybean (Var. Clark) [2]; 2nd treatment, 0.10 lbs./A) | Seeds per Pod (soybean (Var. Clark) [2]; 2nd treatment, 0.10 lbs./A) | Pods per Plant (soybean (Var. Clark) [2]; 2nd treatment, 0.30 lbs./A) | Seeds per Plant (soybean (Var. Clark) [2]; 2nd treatment, 0.30 lbs./A) | Seeds per Pod (soybean (Var. Clark) [2]; 2nd treatment, 0.30 lbs./A) | Pods per Plant (soybean (Var. Clark) [2]; 2nd treatment, 0.90 lbs./A) | Seeds per Plant (soybean (Var. Clark) [2]; 2nd treatment, 0.90 lbs./A) | Seeds per Pod (soybean (Var. Clark) [2]; 2nd treatment, 0.90 lbs./A) | Pods per Plant (soybean (Var. Clark) [2]; 3rd treatment, 0.10 lbs./A) | Seeds per Plant (soybean (Var. Clark) [2]; 3rd treatment, 0.10 lbs./A) | other results
1 | Clc1cc(Cl)cc(NCNc2cc(Cl)cc(Cl)c2)c1 [I, N,N'-Bis[3,5-dichlorophenyl]methanediamine] | 3 | 0 | 1 | 0 | 5 | 1 | 4 | 5 | 17 | 24.5 | 42.7 | 1.7 | 14.5 | 9.3 | 0.6 | 9.0 | 4.3 | 0.5 | 7.0 | 12.8 | Seeds per Pod (soybean (Var. Clark) [2]; 3rd treatment, 0.10 lbs./A): 1.8; Pods per Plant (soybean (Var. Clark) [2]; 3rd treatment, 0.30 lbs./A): 8.3; Seeds per Plant (soybean (Var. Clark) [2]; 3rd treatment, 0.30 lbs./A): 13.3; Seeds per Pod (soybean (Var. Clark) [2]; 3rd treatment, 0.30 lbs./A): 1.6; Pods per Plant (soybean (Var. Clark) [2]; 3rd treatment, 0.90 lbs./A): 7.2; Seeds per Plant (soybean (Var. Clark) [2]; 3rd treatment, 0.90 lbs./A): 13.3; Seeds per Pod (soybean (Var. Clark) [2]; 3rd treatment, 0.90 lbs./A): 1.5
2 | Clc1cc(Cl)cc(N=Cc2ccccc2)c1 [IV, 3,5-dichloro-N-benzylideneaniline] | 2 | 0 | 3 | 0 | 5 | 1 | 5 | 7 | 17 | 8.3 | 8.3 | 1.0 | 0.7 | 1.0 | 1.5 | 2.7 | 3.2 | 1.2 | 16.5 | 37.0 | Seeds per Pod (soybean (Var. Clark) [2]; 3rd treatment, 0.10 lbs./A): 2.2; Pods per Plant (soybean (Var. Clark) [2]; 3rd treatment, 0.30 lbs./A): 13.2; Seeds per Plant (soybean (Var. Clark) [2]; 3rd treatment, 0.30 lbs./A): 23.3; Seeds per Pod (soybean (Var. Clark) [2]; 3rd treatment, 0.30 lbs./A): 1.7; Pods per Plant (soybean (Var. Clark) [2]; 3rd treatment, 0.90 lbs./A): 19.3; Seeds per Plant (soybean (Var. Clark) [2]; 3rd treatment, 0.90 lbs./A): 37.7; Seeds per Pod (soybean (Var. Clark) [2]; 3rd treatment, 0.90 lbs./A): 1.9
3 | Clc1ccc(N=Cc2ccccc2)cc1Cl [XIII, 3,4-Dichloro-N-benzylideneaniline] | 4 | 0 | 2 | 1 | 3 | 4 | 9 | 17 | 19 | 13.7 | 20.5 | 1.5 | 12.0 | 17.7 | 1.5 | 5.2 | 6.7 | 1.3 | 5.5 | 7.8 | Seeds per Pod (soybean (Var. Clark) [2]; 3rd treatment, 0.10 lbs./A): 1.4; Pods per Plant (soybean (Var. Clark) [2]; 3rd treatment, 0.30 lbs./A): 11.0; Seeds per Plant (soybean (Var. Clark) [2]; 3rd treatment, 0.30 lbs./A): 17.2; Seeds per Pod (soybean (Var. Clark) [2]; 3rd treatment, 0.30 lbs./A): 1.6; Pods per Plant (soybean (Var. Clark) [2]; 3rd treatment, 0.90 lbs./A): 9.3; Seeds per Plant (soybean (Var. Clark) [2]; 3rd treatment, 0.90 lbs./A): 16.7; Seeds per Pod (soybean (Var. Clark) [2]; 3rd treatment, 0.90 lbs./A): 1.8
4 | O=CNc1cc(Cl)cc(Cl)c1 [XVIII, 3',5'-dichloroformanilide] | 5 | 1 | 4 | 0 | 5 | 1 | 11 | 3 | 15 | 16.2 | 17.5 | 1.1 | 9.2 | 6.3 | 0.7 | 0.5 | 0.5 | 1.0 | 9.3 | 15.2 | Pods per Plant (soybean (Var. Clark) [2]; 1st treatment, 0.25 lbs./A): 1.4; Seeds per Plant (soybean (Var. Clark) [2]; 1st treatment, 0.25 lbs./A): 0.0; Seeds per Pod (soybean (Var. Clark) [2]; 1st treatment, 0.25 lbs./A): 0.0; Pods per Plant (soybean (Var. Clark) [2]; 1st treatment, 0.50 lbs./A): 0.8; Seeds per Plant (soybean (Var. Clark) [2]; 1st treatment, 0.50 lbs./A): 1.0; Seeds per Pod (soybean (Var. Clark) [2]; 1st treatment, 0.50 lbs./A): 1.3; Pods per Plant (soybean (Var. Clark) [2]; 1st treatment, 1.00 lbs./A): 0.0; Seeds per Plant (soybean (Var. Clark) [2]; 1st treatment, 1.00 lbs./A): 0.0; Seeds per Pod (soybean (Var. Clark) [2]; 1st treatment, 1.00 lbs./A): 0.0; Pods per Plant (soybean (Var. Clark) [2]; 1st treatment, 2.00 lbs./A): 0.0; Seeds per Plant (soybean (Var. Clark) [2]; 1st treatment, 2.00 lbs./A): 0.0; Seeds per Pod (soybean (Var. Clark) [2]; 1st treatment, 2.00 lbs./A): 0.0; Seeds per Pod (soybean (Var. Clark) [2]; 3rd treatment, 0.10 lbs./A): 1.6; Pods per Plant (soybean (Var. Clark) [2]; 3rd treatment, 0.30 lbs./A): 5.2; Seeds per Plant (soybean (Var. Clark) [2]; 3rd treatment, 0.30 lbs./A): 10.5; Seeds per Pod (soybean (Var. Clark) [2]; 3rd treatment, 0.30 lbs./A): 2.0; Pods per Plant (soybean (Var. Clark) [2]; 3rd treatment, 0.90 lbs./A): 5.2; Seeds per Plant (soybean (Var. Clark) [2]; 3rd treatment, 0.90 lbs./A): 9.5; Seeds per Pod (soybean (Var. Clark) [2]; 3rd treatment, 0.90 lbs./A): 1.8
